Laboratory results as given in patent US20240240224A1, “FLUORESCENT D-TYPE AMINO ACID METABOLISM MARKER-BASED METHOD FOR DETECTING ANTIBACTERIAL DRUG SENSITIVITY TEST” (priority 2020, published 2024).
In brackets after ≈: the same amount, converted by molar mass.

Key:
[1] = system: S. aureus Sa22; assay: BMD susceptibility test; format: cell-based, Staphylococcus aureus; settings: unit assumed
[2] = system: A. baumannii Ab16; assay: BMD susceptibility test; format: cell-based, Acinetobacter baumannii; settings: unit assumed
[3] = system: alveolar lavage fluid sample 0130, A. baumannii; assay: BMD susceptibility test of patient alveolar lavage fluid; format: cell-based, Acinetobacter baumannii; settings: unit assumed
From the text: (§1) The results of antimicrobial susceptibility test of alveolar lavage fluid of seven patients using FDAA and BMD methods are shown in the following table. The drug-resistant bacteria are shown in bold.

[4] = system: alveolar lavage fluid sample 0219, A. baumannii; assay: as above; format: cell-based, Acinetobacter baumannii; settings: unit assumed
From the text: as §1

[5] = system: alveolar lavage fluid sample 0206, A. baumannii; assay: as above; format: cell-based, Acinetobacter baumannii; settings: unit assumed
From the text: as §1

[6] = system: alveolar lavage fluid sample 0130, A. baumannii; assay: FaAST (FDAA) susceptibility test of patient alveolar lavage fluid; format: cell-based, Acinetobacter baumannii; settings: unit assumed
Procedure: (§2) With reference to the flow chart of the rapid detection method of antimicrobial susceptibility test based on FDAA metabolic markers shown in FIG. 3, FDAA is used for the detection of antimicrobial susceptibility test of alveolar lavage fluid. The specific experimental steps are as follows: • 1. Mix bronchoalveolar lavage fluid (BALF, 10 ml) of patients with hospital acquired pneumonia with cation regulated broth medium (CAMHB, 10 ml) of twice the concentration to prepare the bacterial fluid to be tested. • 2. Add 45 μl antibiotic solutions of different concentrations to the 96-well plate separately (see Table 1 for antibiotic concentration gradient settings). • 3. Add 50 μl of the bacterial solution prepared in step 1 to the 96-well plate and mix well. • 4. Add 5 μl of 10 mM Cy5-DAA probe (final concentration 0.15 mM, see FIG. 1 for its structure) into each well, mix well, and then cultivate in dark for 2 hours. • 5. Add 200 μl PBS solution for dilution, and then use flow cytometry to detect the fluorescence intensity of each sample.
as §1

[7] = system: alveolar lavage fluid sample 0219, A. baumannii; assay: as above; format: cell-based, Acinetobacter baumannii; settings: unit assumed
Procedure: as §2, §1

[8] = system: alveolar lavage fluid sample 0206, A. baumannii; assay: as above; format: cell-based, Acinetobacter baumannii; settings: unit assumed
Procedure: as §2, §1

[9] = system: alveolar lavage fluid sample 0204, A. baumannii; assay: as above; format: cell-based, Acinetobacter baumannii; settings: unit assumed
Procedure: as §2, §1

[10] = system: A. baumannii Ab19; assay: BMD susceptibility test; format: cell-based, Acinetobacter baumannii; settings: unit assumed
[11] = system: alveolar lavage fluid sample 0226, K. pneumoniae; assay: FaAST (FDAA) susceptibility test of patient alveolar lavage fluid; format: cell-based, Klebsiella pneumoniae; settings: unit assumed
Procedure: as §2, §1

[12] = system: alveolar lavage fluid sample 0203, K. pneumoniae; assay: as above; format: cell-based, Klebsiella pneumoniae; settings: unit assumed
Procedure: as §2, §1

[13] = system: Pseudomonas aeruginosa PAE853; assay: VITEK drug sensitivity test; format: cell-based; settings: unit assumed
[14] = system: E. faecalis ATCC29212; assay: FaAST (FDAA metabolic labeling method); format: cell-based, Enterococcus faecalis; settings: unit assumed
Summary of the method: (§3)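 Bacteria at OD600=0.05 in CAMHB exposed to antibiotic concentration gradients with Cy5-DAA probe […], 2 h in the dark. Fluorescence read by flow cytometry after PBS dilution; MIC taken from the curve of fluorescence intensity versus antibiotic concentration.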

[15] = system: S. aureus ATCC29213; assay: BMD susceptibility test; format: cell-based, Staphylococcus aureus; settings: unit assumed
[16] = system: E. faecium Ef26; assay: FaAST (FDAA metabolic labeling method); format: cell-based, Enterococcus faecium; settings: unit assumed
Summary of the method: as §3

[17] = system: E.coli 1113; assay: FDAA metabolic labeling susceptibility test (Cy5-DAA probe, flow cytometry); format: cell-based, Escherichia coli; settings: Escherichia coli; E.coli 1113; Cy5-DAA probe, 2 hours; read-out: MIC, FDAA
[18] = system: E.coli 1146; assay: as above; format: cell-based, Escherichia coli; settings: Escherichia coli; E.coli 1146; Cy5-DAA probe, 2 hours; read-out: MIC, FDAA
[19] = system: Pseudomonas aeruginosa PAE2; assay: VITEK drug sensitivity test; format: cell-based; settings: unit assumed

Structure (SMILES): C[C@H]1COc2c(N3CCN(C)CC3)c(F)cc3c(=O)c(C(=O)O)cn1c23 [Levofloxacin, levofloxacin]
- BMD (MIC) [1]: 32 µg/mL
- BMD (MIC) [2]: 16 µg/mL
- BMD (MIC) [3]: 64 µg/mL
- BMD (MIC) [4]: 32 µg/mL
- BMD (MIC) [5]: 32 µg/mL
- FaAST (MIC) [6]: 64 µg/mL
- FaAST (MIC) [7]: 64 µg/mL
- FaAST (MIC) [8]: 64 µg/mL
- FaAST (MIC) [9]: 0.25 µg/mL
- BMD (MIC) [10]: ≤ 0.25 µg/mL
- FaAST (MIC) [11]: 0.25 µg/mL
- FaAST (MIC) [12]: 0.25 µg/mL
- MIC, VITEK [13]: 0.5 µg/mL (≈ 1.38 µM)
- FaAST (MIC) [14]: 1 µg/mL
- BMD (MIC) [15]: ≤ 0.25 µg/mL
- FaAST (MIC) [16]: 64 µg/mL
- MIC [17]: ≥ 16 µg/mL
- MIC [18]: ≥ 16 µg/mL
- MIC, VITEK [19]: 0.5 µg/mL (≈ 1.38 µM)
